Measured values as given in patent publication US20230265107A1, “PB2 INHIBITOR, AND PREPARATION METHOD THEREFOR AND USE THEREOF” (priority 2020, published 2023).

System: virus IFV A/PR/8/34
Test: Cytopathic effect (CPE) method, antiviral activity against influenza virus in MDCK cells, CCK-8 cell viability
Format: cell-based
Details: PR/8, MDCK, 120 h, read-out: EC50 (IFV A/PR/8/34) nM

Question: `O=C(O)[C@@H]1[C@@H](Nc2nc(-c3c[nH]c4ncc(F)cc34)nn3c(C(F)(F)F)ccc23)[C@@H]2CC[C@H]1C1CC12` (stereo partly drawn) [Example 30, (1R,5S,6S,7S)-7-((2-(5-fluoro-1H-pyrrolo[2,3-b]pyridin-3-yl)-7-(trifluoromethyl)pyrrolo[2,1-f][1,2,4]triazin-4-yl)amino)tricyclo[3.2.2.0^2′4]nonane-6-carboxylic acid] was tested. Which EC50 did it give?
Answer: 0.37 nM

Question: `O=C(O)[C@@H]1[C@@H](Nc2nc(-c3n[nH]c4ncc(F)cc34)nn3c(C4CC4)ccc23)[C@@H]2CC[C@H]1C1CC12` (stereo partly drawn) [Example 38, (1R,5S,6S,7S)-7-((7-cyclopropyl-2-(5-fluoro-1H-pyrazolo[3,4-b]pyridin-3-yl)pyrrolo[2,1-f][1,2,4]triazin-4-yl)amino)tricyclo[3.2.2.0^2,4]nonane-6-carboxylic acid] was tested. Which EC50 did it give?
Answer: 0.09 nM

Question: For `O=C(O)[C@H]1[C@H]2CC[C@H](CC2)[C@@H]1Nc1nc(-c2c[nH]c3ncc(F)cc23)nn2c(C(F)(F)F)ccc12` [Example 18, (1R,2S,3S,4R)-3-((2-(5-fluoro-1H-pyrrolo[2,3-b]pyridin-3-yl)-7-(trifluoromethyl)pyrrolo[2,1-f][1,2,4]triazin-4-yl)amino)bicyclo[2.2.2]octane-2-carboxylic acid], which EC50 is on record?
Answer: 0.3 nM

Question: Which EC50 does the source give for `COCc1ccc2c(N[C@@H]3[C@@H](C(=O)O)[C@H]4CC[C@@H]3C3CC34)nc(-c3n[nH]c4ncc(F)cc34)nn12` (stereo partly drawn) [Example 32, (1R,5S,6S,7S)-7-((2-(5-fluoro-1H-pyrazolo[3,4-b]pyridin-3-yl)-7-(methoxymethyl)pyrrolo[2,1-f][1,2,4]triazin-4-yl)amino)tricyclo[3.2.2.0^2,4]nonane-6-carboxylic acid] here?
Answer: 0.24 nM

Question: For `COCc1ccc2c(N[C@@H]3[C@@H](C(=O)O)[C@H]4CC[C@@H]3C3CC34)nc(-c3c[nH]c4ncc(F)cc34)nn12` (stereo partly drawn) [Example 20, (1R,5S,6S,7S)-7-((2-(5-fluoro-1H-pyrrolo[2,3-b]pyridin-3-yl)-7-(methoxymethyl)pyrrolo[2,1-f][1,2,4]triazin-4-yl)amino)tricyclo[3.2.2.0^2,4]nonane-6-carboxylic acid], which EC50 is on record?
Answer: 0.3 nM

Question: `O=C(O)[C@H]1[C@H]2CC[C@H](CC2)[C@@H]1Nc1nc(-c2c[nH]c3ncc(F)cc23)nn2cc(C3CC3)cc12` [Example 8, (1R,2S,3S,4R)-3-((6-cyclopropyl-2-(5-fluoro-1H-pyrrolo[2,3-b]pyridin-3-yl)pyrrolo[2,1-f][1,2,4]triazin-4-yl)amino)bicyclo[2.2.2]octane-2-carboxylic acid] was tested. Which EC50 did it give?
Answer: 0.8 nM

Question: For `O=C(O)[C@@H]1[C@@H](Nc2nc(-c3n[nH]c4ncc(F)cc34)nn3c(C(F)(F)F)ccc23)[C@@H]2CC[C@H]1C1CC12` (stereo partly drawn) [Example 31, (1R,5S,6S,7S)-7-((2-(5-fluoro-1H-pyrazolo[3,4-b]pyridin-3-yl)-7-(trifluoromethyl)pyrrolo[2,1-f][1,2,4]triazin-4-yl)amino)tricyclo[3.2.2.0^2,4]nonane-6-carboxylic acid], which EC50 is on record?
Answer: 0.08 nM
